Legend:
[1] = molecular target: T1, Bone morphogenetic protein 1 (Homo sapiens, UniProt P13497); assay: Inhibition of C-terminal FLAG-6x-His epitope tagged and N-terminal human RAGE signal sequence tagged human BMP1 (23 to 721 amino acids) expressed in CHO-E1A cells pre-incubated for 10 mins before promyostatin peptide substrate addition and measured after 60 mins using 0.5 nM BMP1 by FRET based assay; assay type: cell-based
T1 sequence (P13497 whole entry): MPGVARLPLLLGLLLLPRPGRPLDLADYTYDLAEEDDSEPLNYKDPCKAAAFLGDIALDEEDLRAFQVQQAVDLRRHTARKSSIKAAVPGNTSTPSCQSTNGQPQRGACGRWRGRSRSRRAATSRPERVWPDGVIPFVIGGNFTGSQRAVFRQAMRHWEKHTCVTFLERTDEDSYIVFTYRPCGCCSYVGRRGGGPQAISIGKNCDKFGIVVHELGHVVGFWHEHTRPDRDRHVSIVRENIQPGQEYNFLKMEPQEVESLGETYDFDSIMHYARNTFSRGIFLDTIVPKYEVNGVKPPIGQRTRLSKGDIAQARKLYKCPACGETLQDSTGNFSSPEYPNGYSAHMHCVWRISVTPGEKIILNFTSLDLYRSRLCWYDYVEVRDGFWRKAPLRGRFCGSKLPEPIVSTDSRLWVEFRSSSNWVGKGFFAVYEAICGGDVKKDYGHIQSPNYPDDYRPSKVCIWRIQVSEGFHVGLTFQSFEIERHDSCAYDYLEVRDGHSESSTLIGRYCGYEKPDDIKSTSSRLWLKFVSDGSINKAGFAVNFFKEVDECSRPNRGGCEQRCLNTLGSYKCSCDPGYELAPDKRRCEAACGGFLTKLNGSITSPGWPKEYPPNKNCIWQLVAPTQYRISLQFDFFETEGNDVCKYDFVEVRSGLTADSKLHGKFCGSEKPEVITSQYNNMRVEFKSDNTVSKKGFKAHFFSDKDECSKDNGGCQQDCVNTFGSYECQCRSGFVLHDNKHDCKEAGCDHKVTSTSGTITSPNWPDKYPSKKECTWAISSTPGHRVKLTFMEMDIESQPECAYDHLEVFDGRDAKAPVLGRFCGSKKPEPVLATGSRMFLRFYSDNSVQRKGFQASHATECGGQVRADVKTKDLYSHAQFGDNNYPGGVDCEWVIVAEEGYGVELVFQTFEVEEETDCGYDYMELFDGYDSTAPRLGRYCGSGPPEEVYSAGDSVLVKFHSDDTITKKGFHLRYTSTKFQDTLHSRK

[2] = molecular target: T1, Bone morphogenetic protein 1; assay: Inhibition of C-terminal FLAG-6x-His epitope tagged and N-terminal human RAGE signal sequence tagged human BMP1 (23 to 721 amino acids) expressed in CHO-E1A cells pre-incubated for 10 mins before promyostatin peptide substrate addition and measured after 30 mins using 50 nM BMP1 by FRET based assay; assay type: cell-based
[3] = molecular target: Tolloid-like protein 1 (Homo sapiens, UniProt O43897, I156V/N221S/V284A); assay: Inhibition of recombinant human TLL1 I156V/N221S/V284A mutant expressed in CHOE1A cells pre-incubated for 10 mins before promyostatin peptide substrate addition and measured after 60 mins by FRET based assay; assay type: cell-based
[4] = molecular target: T2, Tolloid-like protein 2 (Homo sapiens, UniProt Q9Y6L7); assay: Inhibition of C-terminal Avi-6x-His epitope tagged and N-terminal human RAGE signal sequence tagged recombinant human TLL2 (26 to 1015 amino acids) expressed in CHOE1A cells incubated for 60 mins with promyostatin peptide substrate by FRET based assay; assay type: cell-based
T2 sequence (Q9Y6L7 whole entry): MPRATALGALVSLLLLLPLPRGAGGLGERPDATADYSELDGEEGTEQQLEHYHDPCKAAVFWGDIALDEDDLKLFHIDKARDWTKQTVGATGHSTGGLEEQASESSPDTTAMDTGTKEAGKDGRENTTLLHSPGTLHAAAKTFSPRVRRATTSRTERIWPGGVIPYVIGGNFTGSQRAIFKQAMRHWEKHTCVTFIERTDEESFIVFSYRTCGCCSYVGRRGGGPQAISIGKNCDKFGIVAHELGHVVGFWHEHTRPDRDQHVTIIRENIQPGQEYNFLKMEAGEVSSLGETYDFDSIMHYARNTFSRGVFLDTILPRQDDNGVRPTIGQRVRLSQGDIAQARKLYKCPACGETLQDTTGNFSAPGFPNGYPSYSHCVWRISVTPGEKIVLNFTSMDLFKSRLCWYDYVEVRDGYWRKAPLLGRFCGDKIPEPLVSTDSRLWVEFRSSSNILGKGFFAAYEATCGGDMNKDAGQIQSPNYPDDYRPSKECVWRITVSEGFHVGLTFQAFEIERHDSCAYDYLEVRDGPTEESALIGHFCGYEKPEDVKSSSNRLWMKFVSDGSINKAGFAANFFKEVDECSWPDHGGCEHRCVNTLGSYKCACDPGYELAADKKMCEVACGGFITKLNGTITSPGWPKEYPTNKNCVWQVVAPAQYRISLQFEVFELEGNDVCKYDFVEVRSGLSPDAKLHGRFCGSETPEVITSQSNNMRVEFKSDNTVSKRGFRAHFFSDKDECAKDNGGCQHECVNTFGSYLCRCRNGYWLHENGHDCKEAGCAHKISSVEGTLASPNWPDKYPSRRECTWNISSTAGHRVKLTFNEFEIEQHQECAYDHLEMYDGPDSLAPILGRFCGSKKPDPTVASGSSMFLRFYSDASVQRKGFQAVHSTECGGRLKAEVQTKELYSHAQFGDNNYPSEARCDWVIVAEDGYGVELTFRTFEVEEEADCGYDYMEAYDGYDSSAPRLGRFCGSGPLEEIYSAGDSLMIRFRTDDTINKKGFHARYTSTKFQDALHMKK

[5] = Reduction in PICP levels in human cardiac fibroblasts incubated for 24 to 48 hrs by ELISA; assay type: functional
[6] = Reduction in mature collagen deposition levels in human cardiac fibroblasts incubated for 24 to 48 hrs by immunostaining based assay; assay type: functional

Chain of Tolloid-like protein 1 (O43897 148-1013 I156V/N221S/V284A limits assumed): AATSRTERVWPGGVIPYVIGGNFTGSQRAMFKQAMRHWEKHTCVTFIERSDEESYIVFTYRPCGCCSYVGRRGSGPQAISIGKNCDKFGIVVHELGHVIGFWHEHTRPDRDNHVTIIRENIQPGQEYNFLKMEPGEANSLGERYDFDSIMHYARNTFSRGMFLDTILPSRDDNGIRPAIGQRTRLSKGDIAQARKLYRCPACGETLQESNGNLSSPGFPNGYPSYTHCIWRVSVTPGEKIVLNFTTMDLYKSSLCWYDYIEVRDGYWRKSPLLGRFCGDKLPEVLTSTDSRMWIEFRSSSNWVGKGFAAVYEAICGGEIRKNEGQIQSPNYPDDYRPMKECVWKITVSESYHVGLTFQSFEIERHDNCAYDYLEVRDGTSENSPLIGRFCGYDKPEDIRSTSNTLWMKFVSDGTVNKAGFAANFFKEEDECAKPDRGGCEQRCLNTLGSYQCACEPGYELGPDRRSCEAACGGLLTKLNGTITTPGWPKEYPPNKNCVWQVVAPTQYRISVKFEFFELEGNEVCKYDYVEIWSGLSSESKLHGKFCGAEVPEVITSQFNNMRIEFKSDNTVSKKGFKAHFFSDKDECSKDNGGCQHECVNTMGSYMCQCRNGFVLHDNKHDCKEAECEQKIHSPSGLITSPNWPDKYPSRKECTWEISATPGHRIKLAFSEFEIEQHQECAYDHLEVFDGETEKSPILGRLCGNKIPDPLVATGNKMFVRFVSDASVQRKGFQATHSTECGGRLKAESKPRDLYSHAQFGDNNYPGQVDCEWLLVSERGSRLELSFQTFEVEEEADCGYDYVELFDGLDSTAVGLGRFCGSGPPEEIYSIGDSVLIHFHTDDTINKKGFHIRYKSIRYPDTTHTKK

Compound | IC50 [1] | IC50 [2] | IC50 [3] | IC50 [4] | IC50 [5] | IC50 [6]
CCCCC[C@@H](C(=O)NCNC(=O)c1cccc(-c2ccc(CC(=O)N[C@@H](CC(=O)O)C(=O)O)c(OCC)c2)n1)[C@@H](CC)N(O)C=O | < 126 nM | < 251 nM | < 398 nM | < 631 nM | < 20000 nM | < 1580 nM
CCCCC[C@@H](C(=O)NCNC(=O)c1ccnc(-c2ccc(C(=O)O)c(OCC)c2)n1)[C@@H](CC)N(O)C=O | < 126 nM | < 251 nM | < 398 nM | < 631 nM | < 20000 nM | < 1580 nM
CCCCC[C@@H](C(=O)NCNC(=O)c1cccc(-c2ccc(C(=O)N[C@@H](CC(=O)O)C(=O)O)c(OCC)c2)n1)[C@@H](CC)N(O)C=O | < 126 nM | < 251 nM | < 398 nM | < 631 nM | < 20000 nM | < 1580 nM
CCCCC[C@@H](C(=O)NCNC(=O)c1ccnc(-c2ccc(P(=O)(O)O)c(OCC)c2)n1)[C@@H](CC)N(O)C=O | < 126 nM | < 251 nM | < 398 nM | < 631 nM | < 20000 nM | < 1580 nM
CCCCC[C@@H](C(=O)NCNC(=O)c1cccc(-c2cc(C(=O)O)cc(S(N)(=O)=O)c2)n1)[C@@H](CC)N(O)C=O | < 126 nM | < 251 nM | < 398 nM | < 631 nM | < 20000 nM | < 1580 nM
CCCCC[C@@H](C(=O)NCNC(=O)c1cncc(-c2ccc(P(=O)(O)O)c(OCC)c2)n1)[C@@H](CC)N(O)C=O | < 126 nM | < 251 nM | < 398 nM | < 631 nM | < 20000 nM | < 1580 nM
CCCCC[C@@H](C(=O)NCNC(=O)c1cccc(-c2cc(OCC)cc(C(=O)O)c2)n1)[C@@H](CC)N(O)C=O | < 126 nM | < 251 nM | < 398 nM | < 631 nM | < 20000 nM | < 1580 nM

Reference: ChEMBL document CHEMBL4476883, “Hydroxy formamide derivatives and their use” (2017)
